Data on one substance can be found in PMC9570413, “A New Phospholipase D from Moritella sp. JT01: Biochemical Characterization, Crystallization and Application in the Synthesis of Phosphatidic Acid” (International Journal of Molecular Sciences, 2022).

The assay has as its target T1, MsPLD (phospholipase D from Moritella sp. JT01) (Moritella sp. JT01, UniProt A0A137SLD1).
T1 construct: gene AKG98_3441; precursor 578 residues; C-terminal 6xHis (pET-21a); E. coli SHuffle T7; about 62 kDa
T1 sequence (A0A137SLD1 29-578): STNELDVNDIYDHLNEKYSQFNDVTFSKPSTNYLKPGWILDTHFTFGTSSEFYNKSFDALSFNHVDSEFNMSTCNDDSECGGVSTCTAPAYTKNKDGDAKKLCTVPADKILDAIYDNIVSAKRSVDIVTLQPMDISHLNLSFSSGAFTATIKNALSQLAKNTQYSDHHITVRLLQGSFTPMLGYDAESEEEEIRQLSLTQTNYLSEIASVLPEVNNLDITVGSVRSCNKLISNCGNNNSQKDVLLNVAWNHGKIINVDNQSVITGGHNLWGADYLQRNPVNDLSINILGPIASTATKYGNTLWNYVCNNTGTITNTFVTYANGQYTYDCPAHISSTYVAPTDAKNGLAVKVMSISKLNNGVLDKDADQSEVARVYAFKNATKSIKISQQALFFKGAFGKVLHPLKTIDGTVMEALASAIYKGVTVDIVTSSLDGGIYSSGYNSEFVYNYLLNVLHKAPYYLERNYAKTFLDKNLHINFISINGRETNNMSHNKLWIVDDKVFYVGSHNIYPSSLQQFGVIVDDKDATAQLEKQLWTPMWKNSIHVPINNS
Put plainly: enzyme-linked colorimetry (choline oxidase/peroxidase), Michaelis-Menten. In kind it is biochemical. As to conditions: 0.1 M Tris-HCl pH 8.0, 35 °C, SDS and Triton X-100 in assay mixture; 0.5-8.0 mM PC; natural soybean PC, acyl chains not defined (class of species, no single structure). Here is the method: enzyme-linked colorimetry (choline oxidase/peroxidase), Michaelis-Menten on MsPLD (phospholipase D from Moritella sp. JT01) | the kinetic parameters of MsPLD to soy PC were determined

Turning to L-α-phosphatidylcholine from soybean, the Km (usually the substrate concentration at which the rate is half of its maximum) was determined as 3.44 ± 0.81 mM.
